Assay results from patent US20250163066A1, “PROTACs of MALT1” (TEGID THERAPEUTICS, INC., priority 2022, published 2025).

What follows are compounds tested against MALT1 (Homo sapiens (Human), UniProt Q9UDY8) (assay: MALT1 enzymatic activity inhibition (fluorescence, Ac-LRSR-AMC substrate)). Details: recombinant MALT1 1.5 ng/μl, Ac-LRSR-AMC 1 μM.
Assay type: biochemical
Description: Compound activity was determined using recombinant MALT1 protein (Creative Biomart, Cat #MALT1-28H) and Ac-LRSR-AMC Substrate in an in vitro enzymatic reaction. The enzymatic assay used to determine activity was a Fluorescence assay using a Microplate Reader ClarioStar Plus. The enzymatic reaction was carried out in 1× Assay Buffer (50 mM HEPES pH 7.2-7.4, 100 mM NaCl, 900 mM Sodium citrate, 10 mM DTT). The compounds were dispensed on a 384-well Diamond Well Plate (Axygen, Cat #P-384-120SQ-C—S) using the Biomek FX liquid handling system at 100× solutions of compounds in DMSO. 2.5×MALT1 mix (final concentration 1.5 ng/μl of MALT1) was prepared in 1× Assay Buffer and 8 μl of mixture per well were added into 384w white Reaction Plates with NBS (Corning, Cat #4513). 8 μl of 1× Assay Buffer were used for negative control. Plates were centrifuged for 1 min at 200 g. Next, the compounds were added to Reaction plates using Biomek station via following steps: 1 μl of 100× compounds (in DMSO) was mixed thoroughly with 19 μl of 1× Assay Buffer, then 4 μl of this mixture were added to Reaction plates with 8 μl of MALT1 mix. Plates were centrifuged for 1 min at 200 g and incubated for 10 minutes at rt. Next, 2.5× Ac-LRSR-AMC mix (final concentration 1 μM of Ac-LRSR-AMC) was prepared in 1× Assay Buffer and 8 μl of mixture per well were added to Reaction Plates using Biomek station. Plates were centrifuged for 1 min at 200 g, then the fluorescence was measured immediately using Microplate Reader. Plates were incubated for 30 minutes at 37° C., then for 30 minutes at rt. The fluorescence was measured after the whole incubation using Microplate Reader. The reaction signal was calculated as the subtraction of the first data set values from the second. The % inhibition was then used to calculate the IC50 values. The results of this assay are shown in the Table A. The values of EC50 shown as a letters A-E, where: A≤0.2 μM; 0.2 μM<B≤0.5 μM; 0.5 μM<C≤1 μM; 1<D≤5 μM; E >5.

Chain of MALT1 (Q9UDY8 whole entry): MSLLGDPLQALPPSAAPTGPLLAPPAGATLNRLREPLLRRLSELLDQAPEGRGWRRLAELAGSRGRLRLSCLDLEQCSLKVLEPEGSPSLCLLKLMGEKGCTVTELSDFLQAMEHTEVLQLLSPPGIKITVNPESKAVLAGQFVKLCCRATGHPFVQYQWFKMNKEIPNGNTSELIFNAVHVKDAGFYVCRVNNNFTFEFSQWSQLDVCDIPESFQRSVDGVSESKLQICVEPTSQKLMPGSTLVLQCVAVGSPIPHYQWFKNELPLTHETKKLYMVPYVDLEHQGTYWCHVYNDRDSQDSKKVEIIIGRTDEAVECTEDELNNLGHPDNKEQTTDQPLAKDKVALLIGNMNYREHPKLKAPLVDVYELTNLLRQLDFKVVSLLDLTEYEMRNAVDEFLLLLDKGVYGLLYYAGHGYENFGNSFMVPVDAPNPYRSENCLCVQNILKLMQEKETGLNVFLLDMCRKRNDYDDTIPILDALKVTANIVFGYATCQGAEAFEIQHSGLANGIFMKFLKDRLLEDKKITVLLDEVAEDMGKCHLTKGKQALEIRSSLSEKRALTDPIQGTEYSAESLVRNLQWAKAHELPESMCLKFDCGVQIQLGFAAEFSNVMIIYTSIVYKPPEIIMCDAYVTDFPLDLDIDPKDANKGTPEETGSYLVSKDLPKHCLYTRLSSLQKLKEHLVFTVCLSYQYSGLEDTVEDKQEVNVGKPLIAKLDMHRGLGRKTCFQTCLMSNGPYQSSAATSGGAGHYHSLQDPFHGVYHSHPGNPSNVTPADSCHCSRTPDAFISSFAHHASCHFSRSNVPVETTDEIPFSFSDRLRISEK

Question: With `COc1cc(-c2c(NC(=O)Nc3cnc(-c4noc(CNC(=O)CCOCCN5CCN(c6ccc7c(c6)CN(C6CCC(=O)NC6=O)C7=O)CC5)n4)c(C)c3)cnc3ccnn23)cc(OC)c1OC` (centres unmarked) [Compound 1, 3-(2-{4-[2-(2,6-Dioxopiperidin-3-yl)-1-oxo-2,3-dihydro-1H-isoindol-5-yl]piperazin-1-yl}ethoxy)-N-[(3-{3-methyl-5-[({[7-(3,4,5-trimethoxyphenyl)pyrazolo[1,5-a]pyrimidin-6-yl]amino}carbonyl)amino]pyridin-2-yl}-1,2,4-oxadiazol-5-yl)methyl]propenamide] as the compound, how does the EC50 read?
Answer: > 5 µM

Question: Which EC50 does the source give for `Cc1cc(NC(=O)Nc2cnc3ccnn3c2C2CCCC2)cnc1-c1noc(CCCCCC(=O)N2CCN(c3ccc4c(c3)CN(C3CCC(=O)NC3=O)C4=O)CC2)n1` (centres unmarked) [Compound 4, 1-(7-cyclopentylpyrazolo[1,5-a]pyrimidin-6-yl)-3-[6-[5-[6-[4-[2-(2,6-dioxo-3-piperidyl)-1-oxo-isoindolin-5-yl]piperazin-1-yl]-6-oxo-hexyl]-1,2,4-oxadiazol-3-yl]-5-methyl-3-pyridyl]urea] here?
Answer: 0.2 to 0.5 µM

Question: For `Cc1cc(NC(=O)Nc2cnc3ccnn3c2C2CCCC2)cnc1-c1nnc(CCCCCC(=O)N2CCN(c3ccc4c(c3)CN(C3CCC(=O)NC3=O)C4=O)CC2)o1` (centres unmarked) [Compound 5, 1-(7-cyclopentylpyrazolo[1,5-a]pyrimidin-6-yl)-3-[6-[5-[6-[4-[2-(2,6-dioxo-3-piperidyl)-1-oxo-isoindolin-5-yl]piperazin-1-yl]-6-oxo-hexyl]-1,3,4-oxadiazol-2-yl]-5-methyl-3-pyridyl]urea], which EC50 is on record?
Answer: ≤ 0.2 µM

Question: `Cc1cc(NC(=O)Nc2cnc3ccnn3c2C2CCCC2)cnc1-c1cn(CCCCCCC(=O)N2CCN(c3ccc4c(c3)CN(C3CCC(=O)NC3=O)C4=O)CC2)nn1` (centres unmarked) [Compound 6, 1-(7-cyclopentylpyrazolo[1,5-a]pyrimidin-6-yl)-3-[6-[1-[7-[4-[2-(2,6-dioxo-3-piperidyl)-1-oxo-isoindolin-5-yl]piperazin-1-yl]-7-oxo-heptyl]triazol-4-yl]-5-methyl-3-pyridyl]urea] was tested. Which EC50 did it give?
Answer: 0.5 to 1 µM

Question: `Cc1cc(NC(=O)Nc2cnc3ccnn3c2C2CCCC2)cnc1-c1cn(CCCCOCC(=O)N2CCN(c3ccc4c(c3)CN(C3CCC(=O)NC3=O)C4=O)CC2)nn1` (centres unmarked) [Compound 8, 1-(7-cyclopentylpyrazolo[1,5-a]pyrimidin-6-yl)-3-[6-[1-[4-[2-[4-[2-(2,6-dioxo-3-piperidyl)-1-oxo-isoindolin-5-yl]piperazin-1-yl]-2-oxo-ethoxy]butyl]triazol-4-yl]-5-methyl-3-pyridyl]urea] was tested. Which EC50 did it give?
Answer: 1 to 5 µM

Question: For `Cc1cc(NC(=O)Nc2cnc3nccn3c2C2CCCC2)cnc1-c1noc(CCCCCC(=O)N2CCN(c3ccc4c(c3)CN(C3CCC(=O)NC3=O)C4=O)CC2)n1` (centres unmarked) [Compound 9, 1-(5-cyclopentylimidazo[1,2-a]pyrimidin-6-yl)-3-[6-[5-[6-[4-[2-(2,6-dioxo-3-piperidyl)-1-oxo-isoindolin-5-yl]piperazin-1-yl]-6-oxo-hexyl]-1,2,4-oxadiazol-3-yl]-5-methyl-3-pyridyl]urea], which EC50 is on record?
Answer: > 5 µM

Question: Which EC50 does the source give for `Cc1cc(NC(=O)Nc2cnc3ccnn3c2C2CCCC2)cnc1-c1noc(COCCCCN2CCN(c3ccc4c(c3)CN(C3CCC(=O)NC3=O)C4=O)CC2)n1` (centres unmarked) [Compound 11, 1-(7-cyclopentylpyrazolo[1,5-a]pyrimidin-6-yl)-3-[6-[5-[4-[4-[2-(2,6-dioxo-3-piperidyl)-1-oxo-isoindolin-5-yl]piperazin-1-yl]butoxymethyl]-1,2,4-oxadiazol-3-yl]-5-methyl-3-pyridyl]urea] here?
Answer: 0.2 to 0.5 µM

Question: How did the EC50 turn out when `Cc1cc(NC(=O)Nc2cnc3c(Cl)cnn3c2C2CCCC2)cnc1-c1noc(CCCN2CCN(c3ccc4c(c3)CN(C3CCC(=O)NC3=O)C4=O)CC2)n1` (centres unmarked) [Compound 19, 1-(3-chloro-7-cyclopentyl-pyrazolo[1,5-a]pyrimidin-6-yl)-3-[6-[5-[3-[4-[2-(2,6-dioxo-3-piperidyl)-1-oxo-isoindolin-5-yl]piperazin-1-yl]propyl]-1,2,4-oxadiazol-3-yl]-5-methyl-3-pyridyl]urea] was run?
Answer: 1 to 5 µM
